Series [1] deals with soybean plants transformed by pCPE826 (Pf-Evo41+HPPD-Gm RNAi). Nature of the series: Field trial of the T1 generation, herbicide tolerance. The following applies: in vivo. An excerpt: (§1) The above result was confirmed in a field trial of the T1 generation.
Series [2] deals with soybean plants transformed by pMLS0519 (Pf-KGEPHSVV). The description is as above. The series is classed as in vivo. Conditions: Puerto Rico, among the most effective constructs.
Source text: as §1

Consider `CS(=O)(=O)c1cc(C(F)(F)F)ccc1C(=O)c1cnoc1C1CC1` [Isoxaflutole, (5-cyclopropyl-4-isoxazolyl)[2-(methylsulfonyl)-4-(trifluoromethyl)phenyl]methanone], for which the “tolerance to HPPD inhibitor” value in series [1] and in series [2] was “good tolerance” throughout.

Values taken from patent publication US11279944B2, “Of herbicide tolerance to 4-hydroxyphenylpyruvate dioxygenase (HPPD) inhibitors by down-regulation of HPPD expression in soybean” (BASF AGRICULTURAL SOLUTIONS SEED US LLC, priority 2017, dated 2022).
